Measured values reported in US11970498B2, “CDK2 inhibitors” (BLUEPRINT MEDICINES CORPORATION, priority 2021, dated 2024).

Key:
CDK2/Cyclin E = CDK2/Cyclin E (Homo sapiens, UniProt P24941); assay: CDK2/Cyclin E biochemical phosphorylation assay (Caliper mobility shift); details: apparent IC50; 1.0 mM ATP or ATP Km; 1.25 nM enzyme; 25° C.; read-out: CDK2/cyclin E1 IC50
Method in brief: (§1)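 7.5 µM 5-FAM-QSPKKG-CONH2 peptide phosphorylated by CDK2/Cyclin E (1.25 nM) or GST-CDK1/Cyclin B1 (1.5 nM) at 1.0 mM ATP or ATP Km, in HEPES pH 7.5, MgCl2, Brij-35, DTT, 1% DMSO, 25 °C to 10–20% conversion. EDTA stop; Caliper mobility-shift readout; apparent IC50 from percent activity vs log concentration.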

CDK1/Cyclin B1, GST-tag = biological target: T1, CDK1/Cyclin B1, GST-tag (Homo sapiens, UniProt P06493); assay: CDK1/Cyclin B1 biochemical phosphorylation assay (Caliper mobility shift); details: apparent IC50; 1.0 mM ATP or ATP Km; 1.5 nM enzyme; 25° C.
T1 construct: GST
Method in brief: as §1

T1 sequence (P06493 whole entry): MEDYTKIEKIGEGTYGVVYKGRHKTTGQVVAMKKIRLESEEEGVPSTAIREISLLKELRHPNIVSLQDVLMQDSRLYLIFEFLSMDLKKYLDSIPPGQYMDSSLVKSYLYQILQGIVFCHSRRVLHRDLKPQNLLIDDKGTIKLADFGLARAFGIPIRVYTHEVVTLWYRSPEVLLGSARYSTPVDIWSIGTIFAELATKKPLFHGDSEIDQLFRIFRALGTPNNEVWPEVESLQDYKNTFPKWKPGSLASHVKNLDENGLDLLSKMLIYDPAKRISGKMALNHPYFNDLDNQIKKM
T1 sequence (P14635 whole entry partner): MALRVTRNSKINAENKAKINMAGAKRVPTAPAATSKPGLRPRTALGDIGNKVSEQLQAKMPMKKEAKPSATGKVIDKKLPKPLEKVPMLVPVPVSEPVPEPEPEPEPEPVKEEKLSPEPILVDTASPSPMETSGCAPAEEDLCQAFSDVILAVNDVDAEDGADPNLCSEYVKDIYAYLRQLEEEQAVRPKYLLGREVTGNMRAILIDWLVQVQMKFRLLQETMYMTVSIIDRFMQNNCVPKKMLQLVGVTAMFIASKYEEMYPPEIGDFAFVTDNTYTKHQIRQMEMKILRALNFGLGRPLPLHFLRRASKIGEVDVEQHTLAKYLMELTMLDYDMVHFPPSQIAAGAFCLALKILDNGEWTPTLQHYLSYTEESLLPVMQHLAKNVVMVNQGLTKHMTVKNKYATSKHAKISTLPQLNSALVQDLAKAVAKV

| Compound | IC50 (CDK2/Cyclin E) [nM] | IC50 (CDK1/Cyclin B1, GST-tag) [nM] |
| --- | --- | --- |
| C[C@H](c1cccnc1)n1ncc2ncc(Nc3cc(OC(F)F)[nH]n3)nc21 [Example 91, (R)-N-(5-(difluoromethoxy)-1H-pyrazol-3-yl)-1-(1-(pyridin-3-yl)ethyl)-1H-pyrazolo[3,4-b]pyrazin-6-amine] | 20 to 30 | ≥ 500 |
| Cc1ncccc1Cn1ncc2ncc(Nc3cc(OC(F)F)[nH]n3)nc21 [Example 95, N-(5-(difluoromethoxy)-1H-pyrazol-3-yl)-1-((2-methylpyridin-3-yl)methyl)-1H-pyrazolo[3,4-b]pyrazin-6-amine] | 20 to 30 | ≥ 500 |
| Cc1ccncc1Cn1ncc2ncc(Nc3cc(OC(F)F)[nH]n3)nc21 [Example 96, N-(5-(difluoromethoxy)-1H-pyrazol-3-yl)-1-((4-methylpyridin-3-yl)methyl)-1H-pyrazolo[3,4-b]pyrazin-6-amine] | 30 to 100 | ≥ 500 |
| CC1(Cn2ncc3ncc(Nc4cc(OC(F)F)[nH]n4)nc32)CC1 [Example 98, N-(5-(difluoromethoxy)-1H-pyrazol-3-yl)-1-((1-methylcyclopropyl)methyl)-1H-pyrazolo[3,4-b]pyrazin-6-amine] | 10 to 20 | ≥ 500 |
| CC(C)Cn1ncc2ncc(Nc3cc(OC(F)F)[nH]n3)nc21 [Example 100, N-(5-(difluoromethoxy)-1H-pyrazol-3-yl)-1-isobutyl-1H-pyrazolo[3,4-b]pyrazin-6-amine] | 10 to 20 | ≥ 500 |
| FC(F)Oc1cc(Nc2cnc3cnn([C@H](c4ccccn4)C4CC4)c3n2)n[nH]1 [Example 102, (S)-1-(cyclopropyl(pyridin-2-yl)methyl)-N-(5-(difluoromethoxy)-1H-pyrazol-3-yl)-1H-pyrazolo[3,4-b]pyrazin-6-amine] | 20 to 30 | ≥ 500 |
| FC(F)Oc1cc(Nc2cnc3cnn(C[C@@H]4CCCCO4)c3n2)n[nH]1 [Example 103, (S)-N-(5-(difluoromethoxy)-1H-pyrazol-3-yl)-1-((tetrahydro-2H-pyran-2-yl)methyl)-1H-pyrazolo[3,4-b]pyrazin-6-amine] | 20 to 30 | ≥ 500 |
| FC(F)Oc1cc(Nc2cnc3cnn(CC4CCCC4)c3n2)n[nH]1 [Example 104, 1-(cyclopentylmethyl)-N-(5-(difluoromethoxy)-1H-pyrazol-3-yl)-1H-pyrazolo[3,4-b]pyrazin-6-amine] | ≤ 10 | 100 to 500 |
| FC(F)Oc1cc(Nc2cnc3cnn(CC4CCCCC4)c3n2)n[nH]1 [Example 105, 1-(cyclohexylmethyl)-N-(5-(difluoromethoxy)-1H-pyrazol-3-yl)-1H-pyrazolo[3,4-b]pyrazin-6-amine] | ≤ 10 | 100 to 500 |
| FC(F)Oc1cc(Nc2cnc3cnn(CC45CC(C4)C5)c3n2)n[nH]1 [Example 106, 1-(bicyclo[1.1.1]pentan-1-ylmethyl)-N-(5-(difluoromethoxy)-1H-pyrazol-3-yl)-1H-pyrazolo[3,4-b]pyrazin-6-amine] | ≤ 10 | 100 to 500 |
| FC(F)Oc1cc(Nc2cnc3cnn(C[C@H]4CCCCO4)c3n2)n[nH]1 [Example 107, (R)-N-(5-(difluoromethoxy)-1H-pyrazol-3-yl)-1-((tetrahydro-2H-pyran-2-yl)methyl)-1H-pyrazolo[3,4-b]pyrazin-6-amine] | 20 to 30 | ≥ 500 |
| FC(F)Oc1cc(Nc2cnc3cnn(CC4CCC(F)(F)CC4)c3n2)n[nH]1 [Example 108, 1-((4,4-difluorocyclohexyl)methyl)-N-(5-(difluoromethoxy)-1H-pyrazol-3-yl)-1H-pyrazolo[3,4-b]pyrazin-6-amine] | ≤ 10 | ≥ 500 |
| CC1(Cn2ncc3ncc(Nc4cc(OC(F)F)[nH]n4)nc32)CCOCC1 [Example 110, N-(5-(difluoromethoxy)-1H-pyrazol-3-yl)-1-((4-methyltetrahydro-2H-pyran-4-yl)methyl)-1H-pyrazolo[3,4-b]pyrazin-6-amine] | ≤ 10 | 100 to 500 |
| FC(F)Oc1cc(Nc2cnc3cnn(C[C@@H]4[C@@H]5COC[C@@H]54)c3n2)n[nH]1 [Example 111, 1-(((1R,5S,6r)-3-oxabicyclo[3.1.0]hexan-6-yl)methyl)-N-(5-(difluoromethoxy)-1H-pyrazol-3-yl)-1H-pyrazolo[3,4-b]pyrazin-6-amine] | ≤ 10 | ≥ 500 |
| FC(F)Oc1cc(Nc2cnc3cnn(CC4(F)CCOCC4)c3n2)n[nH]1 [Example 112, N-(5-(difluoromethoxy)-1H-pyrazol-3-yl)-1-((4-fluorotetrahydro-2H-pyran-4-yl)methyl)-1H-pyrazolo[3,4-b]pyrazin-6-amine] | 20 to 30 | ≥ 500 |
| FC(F)Oc1cc(Nc2cnc3cnn(C[C@H]4CCCO4)c3n2)n[nH]1 [Example 113, (R)-N-(5-(difluoromethoxy)-1H-pyrazol-3-yl)-1-((tetrahydrofuran-2-yl)methyl)-1H-pyrazolo[3,4-b]pyrazin-6-amine] | 30 to 100 | ≥ 500 |

The remaining lines, values ahead:

| IC50 (CDK2/Cyclin E) [nM] | IC50 (CDK1/Cyclin B1, GST-tag) [nM] | Compound |
| --- | --- | --- |
| ≤ 10 | 100 to 500 | Cc1nn(CC2CCOCC2)c2nc(Nc3cc(OC(F)F)[nH]n3)cnc12 [Example 87, N-(5-(difluoromethoxy)-1H-pyrazol-3-yl)-3-methyl-1-((tetrahydro-2H-pyran-4-yl)methyl)-1H-pyrazolo[3,4-b]pyrazin-6-amine] |
| ≤ 10 | ≥ 500 | FC(F)Oc1cc(Nc2cnc3cnn(C[C@@H]4COCCO4)c3n2)n[nH]1 [Example 88, (R)-1-((1,4-dioxan-2-yl)methyl)-N-(5-(difluoromethoxy)-1H-pyrazol-3-yl)-1H-pyrazolo[3,4-b]pyrazin-6-amine] |
| ≤ 10 | ≥ 500 | COc1cc(Nc2cnc3cnn(CC4CCOCC4)c3n2)n[nH]1 [Example 92, N-(5-methoxy-1H-pyrazol-3-yl)-1-((tetrahydro-2H-pyran-4-yl)methyl)-1H-pyrazolo[3,4-b]pyrazin-6-amine] |
| ≤ 10 | ≥ 500 | C[C@@H](c1ccccc1)n1ncc2ncc(Nc3cc(OC(F)F)[nH]n3)nc21 [Example 93, (S)-N-(5-(difluoromethoxy)-1H-pyrazol-3-yl)-1-(1-phenylethyl)-1H-pyrazolo[3,4-b]pyrazin-6-amine] |
| ≤ 10 | ≥ 500 | CC[C@@H](c1cccnc1)n1ncc2ncc(Nc3cc(OC(F)F)[nH]n3)nc21 [Example 94, (S)-N-(5-(difluoromethoxy)-1H-pyrazol-3-yl)-1-(1-(pyridin-3-yl)propyl)-1H-pyrazolo[3,4-b]pyrazin-6-amine] |
| ≤ 10 | ≥ 500 | CC[C@@H](c1ccccn1)n1ncc2ncc(Nc3cc(OC(F)F)[nH]n3)nc21 [Example 97, (S)-N-(5-(difluoromethoxy)-1H-pyrazol-3-yl)-1-(1-(pyridin-2-yl)propyl)-1H-pyrazolo[3,4-b]pyrazin-6-amine] |
| ≤ 10 | ≥ 500 | FC(F)Oc1cc(Nc2cnc3cnn(CC4CC5CCC(C4)O5)c3n2)n[nH]1 (stereo not drawn) [Example 99, 1-((8-oxabicyclo[3.2.1]octan-3-yl)methyl)-N-(5-(difluoromethoxy)-1H-pyrazol-3-yl)-1H-pyrazolo[3,4-b]pyrazin-6-amine] |
| ≤ 10 | 100 to 500 | FC(F)Oc1cc(Nc2cnc3cnn(CC4CCC4)c3n2)n[nH]1 [Example 101, 1-(cyclobutylmethyl)-N-(5-(difluoromethoxy)-1H-pyrazol-3-yl)-1H-pyrazolo[3,4-b]pyrazin-6-amine] |
